Assay results as given in ChEMBL document CHEMBL4346741, “Synthesis, pharmacological evaluation, and mechanistic study of adefovir mixed phosphonate derivatives bearing cholic acid and l-amino acid moieties for the treatment of HBV” (Bioorg Med Chem, 2019).

Legend:
[1] = AUC (0 to t) in Sprague-Dawley rat at 100 mg/kg, po measured up to 24 hrs by LC-MS/MS analysis; format: ADME, organism-based; set-up: dose 100 mg/kg, time < 24 hr, route oral; details: in vivo
HK-2 [2] = assay: Induction of apoptosis in human HK2 cells assessed as presence of apoptotic bodies at 25 to 100 uM measured after 72 hrs by Hoechst 33342 staining based fluorescence assay; format: cell-based; details: hk-2, 72 h
HEK293 = assay: Cytotoxicity against human HEK293 cells expressing OAT1 assessed as reduction in cell viability at 1000 uM after 1 hr by MTT assay relative to control; format: ADME, cell-based; details: hek293, 1 h
[3] = Selectivity index, ratio of CC50 for cytotoxicity against human HepG2.2.15 cells to EC50 for HBV infected in human HepG2.2.15 cells; format: toxicity, cell-based; details: read-out: Ratio CC50/EC50
Hepatitis B virus = assay: Antiviral activity against Hepatitis B virus infected in human HepG2.2.15 cells assessed as inhibition of viral DNA synthesis incubated for 2 days followed by replacement of fresh medium containing compound and measured at day 10 by RT-PCR analysis; format: functional, organism-based
HK-2 [4] = assay: Induction of apoptosis in human HK2 cells assessed as early apoptotic cells at 100 uM measured after 72 hrs by Annexin V-FITC/propidium iodide staining based flow cytometry (reference value: 8.1%); format: cell-based; details: hk-2, 72 h
HK-2 [5] = assay: Induction of mitochondrial membrane dysfunction in human HK2 cells assessed as reduction in mitochondrial potential at 100 uM after 72 hrs by JC-1 staining based flow cytometry; format: cell-based; details: hk-2, 72 h
HK-2 [6] = assay: Induction of apoptosis in human HK2 cells assessed as reduction in Bcl-2 expression at 25 to 100 uM after 72 hrs by Western blot analysis; format: cell-based; details: hk-2, 72 h
HK-2 [7] = assay: Reduction in mitochondrial membrane potential in human HK2 cells assessed as decrease in red fluorescence at 25 to 100 uM after 72 hrs by JC-1 staining based flow cytometry; format: ADME, cell-based; details: hk-2, 72 h
[8] = Drug distribution in mouse kidney at 5.47 mg/kg, po measured up to 24 hrs by LC-MS/MS analysis; format: ADME, organism-based; details: in vivo
OAT1 = assay: Selectivity ratio, ratio of substrate activity at human OAT1 expressed in HEK293 cells harboring pEGFP assessed as compound uptake to substrate activity in human HEK293 cells harboring pEGFP-N1 empty vector assessed as compound uptake; format: ADME, cell-based
[9] = Volume of distribution in Sprague-Dawley rat at 100 mg/kg, po measured up to 24 hrs by LC-MS/MS analysis; format: ADME, organism-based; details: in vivo
HK-2 [10] = assay: Induction of apoptosis in human HK2 cells assessed as nuclear pyknosis at 25 to 100 uM measured after 72 hrs by Hoechst 33342 staining based fluorescence assay; format: cell-based; details: hk-2, 72 h
HK-2 [11] = assay: Induction of apoptosis in human HK2 cells assessed as induction of cleaved caspase 3 levels at 25 to 100 uM after 72 hrs by Western blot analysis; format: cell-based; details: hk-2, 72 h
HK-2 [12] = assay: Reduction in mitochondrial membrane potential in human HK2 cells assessed as increase in green fluorescence at 25 to 100 uM after 72 hrs by JC-1 staining based flow cytometry; format: ADME, cell-based; details: hk-2, 72 h
HK-2 [13] = assay: Induction of apoptosis in human HK2 cells assessed as dense staining at 25 to 100 uM measured after 72 hrs by Hoechst 33342 staining based fluorescence assay; format: cell-based; details: hk-2, 72 h
HK-2 [14] = assay: Cytotoxicity against human HK2 cells assessed as reduction in cell viability at 100 umol/L after 72 hrs by MTT assay relative to control; format: cell-based; details: hk-2, 72 h, 100 µM
HK-2 [15] = assay: Induction of apoptosis in human HK2 cells assessed as early apoptotic cells at 50 uM measured after 72 hrs by Annexin V-FITC/propidium iodide staining based flow cytometry (reference value: 8.1%); format: cell-based; details: hk-2, 72 h
HK-2 [16] = assay: Induction of apoptosis in human HK2 cells assessed as early apoptotic cells at 25 uM measured after 72 hrs by Annexin V-FITC/propidium iodide staining based flow cytometry (reference value: 8.1%); format: cell-based; details: hk-2, 72 h
[17] = biological target: T1, Solute carrier family 22 member 6 (Homo sapiens, UniProt Q4U2R8); assay: Inhibition of human OAT1 expressed in HEK293 cells assessed as P-amino hippuric acid uptake inhibition incubated for 10 mins by UPLC-MS/MS method; format: ADME, cell-based
T1 sequence (Q4U2R8 whole entry): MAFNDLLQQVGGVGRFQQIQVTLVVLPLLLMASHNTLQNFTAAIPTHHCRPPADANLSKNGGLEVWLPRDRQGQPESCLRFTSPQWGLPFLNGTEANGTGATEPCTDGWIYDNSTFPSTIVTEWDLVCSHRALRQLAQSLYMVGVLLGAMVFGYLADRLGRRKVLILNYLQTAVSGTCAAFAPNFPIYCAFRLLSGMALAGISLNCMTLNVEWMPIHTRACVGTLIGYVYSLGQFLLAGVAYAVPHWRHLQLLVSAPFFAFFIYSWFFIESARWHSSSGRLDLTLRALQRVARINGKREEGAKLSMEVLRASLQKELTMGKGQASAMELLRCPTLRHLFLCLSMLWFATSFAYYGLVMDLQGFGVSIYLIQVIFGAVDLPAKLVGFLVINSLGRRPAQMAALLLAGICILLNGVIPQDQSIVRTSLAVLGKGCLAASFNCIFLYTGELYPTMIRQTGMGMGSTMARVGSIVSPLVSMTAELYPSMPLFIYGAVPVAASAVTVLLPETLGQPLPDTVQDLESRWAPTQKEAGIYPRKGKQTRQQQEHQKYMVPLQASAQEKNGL

HK-2 [18] = assay: Induction of apoptosis in human HK2 cells assessed as increase in Bax/Bcl2 ratio after 72 hrs by Western blot analysis; format: cell-based; details: hk-2, 72 h
HepG2 2.2.15 = assay: Cytotoxicity against human HepG2.2.15 cells assessed as reduction in cell viability incubated for 12 hrs followed by replacement of fresh medium containing compound and measured after 2 days by CCK-8 assay; format: functional
HK-2 [19] = assay: Induction of apoptosis in human HK2 cells assessed as increase in Bax level at 25 to 100 uM after 72 hrs by Western blot analysis; format: cell-based; details: hk-2, 72 h
HK-2 [20] = assay: Cytotoxicity against human HK2 cells assessed as reduction in cell viability after 72 hrs by MTT assay; format: cell-based; details: hk-2, 72 h
[21] = biological target: T1, Solute carrier family 22 member 6; assay: Substrate activity at human OAT1 expressed in HEK293 cells harboring pEGFP assessed as compound uptake measured after 20 mins by UPLC-MS/MS method; format: ADME, cell-based; details: hek293, 20 min

CC(C)(C)C(=O)OCOP(=O)(COCCn1cnc2c(N)ncnc21)OCOC(=O)C(C)(C)C [ADEFOVIR DIPIVOXIL]
AUCt [1]: 1655.225 µg/L/h
Activity (HK-2 [2]): Toxic
Activity (HEK293): 47.16%
selectivity ratio [3]: 142
EC50 (Hepatitis B virus): 3.09 µM
Activity (HK-2 [4]): 43.3%
Activity (HK-2 [5]): Toxic
Activity (HK-2 [6]): Toxic
Activity (HK-2 [7]): Toxic
Drug uptake [8]: Active
uptake ratio (OAT1): 7.5
Vd [9]: 153.128 L/kg
Activity (HK-2 [10]): Toxic
Activity (HK-2 [11]): Toxic
Activity (HK-2 [12]): Toxic
Activity (HK-2 [13]): Toxic
Activity (HK-2 [14]): 61.01%
Activity (HK-2 [15]): 18.9%
Activity (HK-2 [16]): 16.8%
IC50 [17]: 13.5 µM
Activity (HK-2 [18]): Dose-dependent effect
CC50 (HepG2 2.2.15): 439 µM
Activity (HK-2 [19]): Toxic
Activity (HK-2 [20]): Dose-dependent effect
Activity [21]: 400 pmol/min/mg
